What was measured:
Test in all cases: relative viability vs DMSO control (72 h) (fraction); higher = more viable cells
G401 = tested on: G401
In short: (§1)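 ATPLite readings, expressed as percent growth and averaged over up to triplicate wells, provided relative viability. Before reading, sarcoma cell lines seeded in 384-well plates to reach 80–90% confluence received 2.5 µl of serially diluted compound after 24 h, from source plates of 10 mM to 0.0002 mM. Plates were held 72 h at 37 °C, 5% CO2, with 0.1% DMSO as vehicle and a 5 µM positive control. The data were rescaled to 1 for full and 0 for none.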

KHOS-240S = tested on: KHOS-240S
In short: as §1

SW684 = tested on: SW684
In short: as §1

SK-LMS-1 = tested on: SK-LMS-1
In short: as §1

SW872 = tested on: SW872
In short: as §1

SW1353 = tested on: SW1353
In short: as §1

SYO-1 = tested on: SYO-1
In short: as §1

HS729 = tested on: HS729
In short: as §1

A204 = tested on: A204
In short: as §1

SK-ES-1 = tested on: SK-ES-1
In short: as §1

SW982 = tested on: SW982
In short: as §1

MES-SA = tested on: MES-SA
In short: as §1

Cn1ncnc1[C@H]1c2n[nH]c(=O)c3cc(F)cc(c23)N[C@@H]1c1ccc(F)cc1 [Talazoparib]
Conditions	relative viability
A204, 0.00017 µM	0.9664
A204, 0.00051 µM	0.987
A204, 0.00152 µM	0.963
A204, 0.00457 µM	0.932
A204, 0.01372 µM	0.906
A204, 0.04115 µM	0.846
A204, 0.1235 µM	0.715
A204, 0.3704 µM	0.674
A204, 1.111 µM	0.576
A204, 3.333 µM	0.519
A204, 10 µM	0.399
G401, 0.00017 µM	0.95
G401, 0.00051 µM	1.02
G401, 0.00152 µM	0.935
G401, 0.00457 µM	0.937
G401, 0.01372 µM	0.881
G401, 0.04115 µM	0.813
G401, 0.1235 µM	0.764
G401, 0.3704 µM	0.716
G401, 1.111 µM	0.663
G401, 3.333 µM	0.613
G401, 10 µM	0.555
HS729, 0.00017 µM	1.05
HS729, 0.00051 µM	1.05
HS729, 0.00152 µM	1.03
HS729, 0.00457 µM	1.02
HS729, 0.01372 µM	1.02
HS729, 0.04115 µM	1.03
HS729, 0.1235 µM	0.961
HS729, 0.3704 µM	0.949
HS729, 1.111 µM	0.895
HS729, 3.333 µM	0.8536
HS729, 10 µM	0.812
KHOS-240S, 0.00017 µM	0.9825
KHOS-240S, 0.00051 µM	1.01
KHOS-240S, 0.00152 µM	0.982
KHOS-240S, 0.00457 µM	0.969
KHOS-240S, 0.01372 µM	0.948
KHOS-240S, 0.04115 µM	0.921
KHOS-240S, 0.1235 µM	0.872
KHOS-240S, 0.3704 µM	0.824
KHOS-240S, 1.111 µM	0.677
KHOS-240S, 3.333 µM	0.524
KHOS-240S, 10 µM	0.457
MES-SA, 0.00017 µM	0.972
MES-SA, 0.00051 µM	0.975
MES-SA, 0.00152 µM	0.945
MES-SA, 0.00457 µM	0.901
MES-SA, 0.01372 µM	0.768
MES-SA, 0.04115 µM	0.678
MES-SA, 0.1235 µM	0.555
MES-SA, 0.3704 µM	0.478
MES-SA, 1.111 µM	0.392
MES-SA, 3.333 µM	0.351
MES-SA, 10 µM	0.314
SK-ES-1, 0.00017 µM	0.961
SK-ES-1, 0.00051 µM	0.9
SK-ES-1, 0.00152 µM	0.825
SK-ES-1, 0.00457 µM	0.614
SK-ES-1, 0.01372 µM	0.33
SK-ES-1, 0.04115 µM	0.173
SK-ES-1, 0.1235 µM	0.109
SK-ES-1, 0.3704 µM	0.0754
SK-ES-1, 1.111 µM	0.0494
SK-ES-1, 3.333 µM	0.0309
SK-ES-1, 10 µM	0.0277
SK-LMS-1, 0.00017 µM	1.01
SK-LMS-1, 0.00051 µM	1.05
SK-LMS-1, 0.00152 µM	0.999
SK-LMS-1, 0.00457 µM	0.999
SK-LMS-1, 0.01372 µM	0.982
SK-LMS-1, 0.04115 µM	0.956
SK-LMS-1, 0.1235 µM	0.9584
SK-LMS-1, 0.3704 µM	0.874
SK-LMS-1, 1.111 µM	0.833
SK-LMS-1, 3.333 µM	0.795
SK-LMS-1, 10 µM	0.778
SW684, 0.00017 µM	0.965
SW684, 0.00051 µM	1.01
SW684, 0.00152 µM	0.988
SW684, 0.00457 µM	1.05
SW684, 0.01372 µM	0.986
SW684, 0.04115 µM	0.969
SW684, 0.1235 µM	0.963
SW684, 0.3704 µM	0.932
SW684, 1.111 µM	0.893
SW684, 3.333 µM	0.875
SW684, 10 µM	0.865
SW872, 0.00017 µM	1.02
SW872, 0.00051 µM	1.04
SW872, 0.00152 µM	1.04
SW872, 0.00457 µM	1.01
SW872, 0.01372 µM	0.99
SW872, 0.04115 µM	0.971
SW872, 0.1235 µM	0.905
SW872, 0.3704 µM	0.799
SW872, 1.111 µM	0.628
SW872, 3.333 µM	0.441
SW872, 10 µM	0.34
SW982, 0.00017 µM	0.911
SW982, 0.00051 µM	0.906
SW982, 0.00152 µM	0.904
SW982, 0.00457 µM	0.862
SW982, 0.01372 µM	0.785
SW982, 0.04115 µM	0.729
SW982, 0.1235 µM	0.615
SW982, 0.3704 µM	0.602
SW982, 1.111 µM	0.499
SW982, 3.333 µM	0.409
SW982, 10 µM	0.361
SW1353, 0.00017 µM	1.06
SW1353, 0.00051 µM	1.09
SW1353, 0.00152 µM	1.07
SW1353, 0.00457 µM	1.03
SW1353, 0.01372 µM	0.999
SW1353, 0.04115 µM	0.919
SW1353, 0.1235 µM	0.889
SW1353, 0.3704 µM	0.814
SW1353, 1.111 µM	0.753
SW1353, 3.333 µM	0.679
SW1353, 10 µM	0.633
SYO-1, 0.00017 µM	0.974
SYO-1, 0.00051 µM	0.961
SYO-1, 0.00152 µM	0.885
SYO-1, 0.00457 µM	0.743
SYO-1, 0.01372 µM	0.582
SYO-1, 0.04115 µM	0.466
SYO-1, 0.1235 µM	0.336
SYO-1, 0.3704 µM	0.193
SYO-1, 1.111 µM	0.081
SYO-1, 3.333 µM	0.0279
SYO-1, 10 µM	0.0191

Source: the supplement of paper PMC10883282
